This note sets out measurements from patent US20260176320A1, “MODULATORS OF G-PROTEIN COUPLED RECEPTORS” (priority 2018, published 2026).

What all share (assay type): cell-based
Assay [1] has as its target T1, GLP-1R (Homo sapiens, UniProt P43220). Nature of the assay: HitHunter cAMP assay (GLP-1R). The settings on record: cAMP; for Emax: read-out: (Emax) GLP-1R. The gist of the method:
(§1)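 cAMP, luminescence read: agonist 22-pt 2× dilution in DMSO, duplicate, 30 min RT on 10,000 cells/well in 1×HBSS/10 mM HEPES/625 μM IBMX/0.2% BSA; anti-cAMP reagent 1 h RT dark, then O/N RT dark before read.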
A general note: cAMP levels reflect the balance of adenylyl cyclase and phosphodiesterase activity.

Another assay addresses T2, GIP-R (Homo sapiens, UniProt P48546).
T2 sequence (P48546 22-466): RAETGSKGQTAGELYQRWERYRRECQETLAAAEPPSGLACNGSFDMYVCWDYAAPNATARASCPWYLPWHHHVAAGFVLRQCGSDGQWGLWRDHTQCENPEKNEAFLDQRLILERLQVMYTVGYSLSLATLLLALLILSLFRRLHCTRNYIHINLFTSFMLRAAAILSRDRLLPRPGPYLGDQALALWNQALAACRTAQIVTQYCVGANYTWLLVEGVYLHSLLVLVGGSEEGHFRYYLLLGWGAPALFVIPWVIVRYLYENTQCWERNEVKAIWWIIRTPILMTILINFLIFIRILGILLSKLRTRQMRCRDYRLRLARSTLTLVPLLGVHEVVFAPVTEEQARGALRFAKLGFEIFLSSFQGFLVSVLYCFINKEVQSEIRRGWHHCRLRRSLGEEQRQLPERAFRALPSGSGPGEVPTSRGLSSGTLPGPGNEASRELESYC
As to the kind of experiment: HitHunter cAMP assay (GIP-R). The settings on record: cAMP; for Emax: read-out: (Emax) GIP-R. The gist of the method:
as §1

Assay [2] concerns the target T1, GLP-1R. As to the kind of experiment: PathHunter β-arrestin assay. The method in brief: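 Luminescence read-out of β-arrestin recruitment (enzyme-fragment complementation detection, 3 h at room temperature in the dark) after 90 min agonist stimulation at 37 °C. Agonists tested as 22-point 2× serial dilutions in duplicate, in medium containing 0.2% BSA.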
Where [3] appears, read: Table 3, read-out: EC50 GLP-1R/nM.
[4] abbreviates: Table 3A, read-out: EC50 GLP-1R/nM.
The mark [5] stands for this setting: Table 3, read-out: EC50 GIP-R/nM.
Setting [6] is: Table 3A, read-out: EC50 GIP-R/nM.
The mark [7] stands for this setting: PathHunter β-arrestin assay, read-out: β-arrestin activity EC50.

Read-outs that look alike come from different tables or passages of the source. Numbered stars: 1 amine (or outer) side, 2 acyl side, 3 side chain; on linkers, the order of the positions; unused ones are H or OH. Square brackets hold non-standard residues; d marks the D form. Side chains are listed from the residue outwards. Peptide text beside a SMILES is read from it. * marks the point of attachment. γGlu = O=C(O)[C@H](CCC(=O)[*:2])N[*:1]; X2 = O=C(CSCC(=O)*)NCCN1C(=O)CSC1=O; Palmitoyl = CCCCCCCCCCCCCCCC(=O)*; Aib = CC(C)(N)C(=O)O

A word on the Emax: it is the greatest response seen or fitted, relative to the assay's reference.

T1 sequence (P43220 24-463): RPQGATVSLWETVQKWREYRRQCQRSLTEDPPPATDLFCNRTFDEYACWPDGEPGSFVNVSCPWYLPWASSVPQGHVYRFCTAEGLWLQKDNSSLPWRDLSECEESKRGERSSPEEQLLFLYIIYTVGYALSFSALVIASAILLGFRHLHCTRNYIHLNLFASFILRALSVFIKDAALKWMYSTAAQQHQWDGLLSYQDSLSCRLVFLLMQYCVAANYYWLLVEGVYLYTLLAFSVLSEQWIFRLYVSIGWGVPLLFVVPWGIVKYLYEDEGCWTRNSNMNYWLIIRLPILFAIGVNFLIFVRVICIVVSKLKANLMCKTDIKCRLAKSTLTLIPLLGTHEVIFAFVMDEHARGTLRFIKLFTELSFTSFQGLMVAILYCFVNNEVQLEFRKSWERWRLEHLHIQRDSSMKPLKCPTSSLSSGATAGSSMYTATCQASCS

As for `CCCCCCCCCCCCCCCC(=O)N[C@@H](CCC(=O)NCCCC[C@H](NC(=O)[C@H](CO)NC(=O)[C@@H]1CCCN1C(=O)[C@@H]1CCCN1C(=O)[C@@H]1CCCN1C(=O)[C@H](C)NC(=O)CNC(=O)[C@H](CO)NC(=O)[C@H](CO)NC(=O)[C@@H]1CCCN1C(=O)CNC(=O)CNC(=O)[C@H](C)NC(=O)[C@H](CC(C)C)NC(=O)[C@H](CC(C)C)NC(=O)[C@H](Cc1c[nH]c2ccccc12)NC(=O)[C@H](CC(N)=O)NC(=O)[C@@H](NC(=O)[C@H](Cc1ccccc1)NC(=O)[C@H](CCC(=O)O)NC(=O)C(C)(C)NC(=O)[C@H](C)NC(=O)[C@H](C)NC(=O)[C@H](CCC(N)=O)NC(=O)[C@H](CCCCN)NC(=O)[C@H](CC(=O)O)NC(=O)[C@H](CCSC)NC(=O)[C@H](CCC(N)=O)NC(=O)[C@@H](NC(=O)[C@H](CO)NC(=O)[C@H](Cc1ccc(O)cc1)NC(=O)[C@H](CC(=O)O)NC(=O)[C@H](CO)NC(=O)[C@@H](NC(=O)[C@H](Cc1ccccc1)NC(=O)[C@@H](NC(=O)CNC(=O)[C@H](CCC(=O)O)NC(=O)CSCC(=O)NCCN1C(=O)CSC1=O)[C@@H](C)O)[C@@H](C)O)[C@@H](C)CC)C(C)C)C(N)=O)C(=O)O` [Compound 72] (X2-EGTFTSDYSIQMDKQAA[Aib]EFVNWLLAGGPSSGAPPPSK([γGlu-Palmitoyl])-NH2), the Emax amounted to 105% on GLP-1R [1] (Table 3), 105% at GLP-1R [1] (Table 3A), 87% on GIP-R (Table 3) and 87% on GIP-R (Table 3A). Besides, the EC50 on GLP-1R [1] (setting [3]) is 0.1 to 1 nM; at GLP-1R [1] (setting [4]) it was 0.1 to 1 nM; at GIP-R (setting [5]), 0.1 to 1 nM; at GIP-R (setting [6]), 0.1 to 1 nM; on GLP-1R [2] (setting [7]) it was over 1000 nM.

Consider `CCCCCCCCCCCCCCCC(=O)N[C@@H](CCC(=O)NCCCC[C@H](NC(=O)[C@H](CO)NC(=O)[C@@H]1CCCN1C(=O)[C@@H]1CCCN1C(=O)[C@@H]1CCCN1C(=O)[C@H](C)NC(=O)CNC(=O)[C@H](CO)NC(=O)[C@H](CO)NC(=O)[C@@H]1CCCN1C(=O)CNC(=O)CNC(=O)[C@H](C)NC(=O)[C@H](CC(C)C)NC(=O)[C@H](CC(C)C)NC(=O)[C@H](Cc1c[nH]c2ccccc12)NC(=O)[C@H](CC(N)=O)NC(=O)[C@@H](NC(=O)[C@H](Cc1ccccc1)NC(=O)[C@H](CCC(=O)O)NC(=O)C(C)(C)NC(=O)[C@H](C)NC(=O)[C@H](C)NC(=O)[C@H](CCC(N)=O)NC(=O)[C@H](CCCCN)NC(=O)[C@H](CC(=O)O)NC(=O)[C@H](CC(C)C)NC(=O)[C@H](Cc1ccc(O)cc1)NC(=O)[C@@H](NC(=O)[C@H](CO)NC(=O)[C@H](Cc1ccc(O)cc1)NC(=O)[C@H](CC(=O)O)NC(=O)[C@H](CO)NC(=O)[C@@H](NC(=O)[C@H](Cc1ccccc1)NC(=O)[C@@H](NC(=O)CNC(=O)[C@H](CCC(=O)O)NC(=O)CSCC(=O)NCCN1C(=O)CC[C@@H](C)C1=O)[C@@H](C)O)[C@@H](C)O)[C@@H](C)CC)C(C)C)C(N)=O)C(=O)O` [Compound 85], for which the EC50 on GLP-1R [1] (EC50 GLP-1R/nM, Table 3) is 1 to 10 nM; at GLP-1R [1] (EC50 GLP-1R/nM, Table 3A) it was 1 to 10 nM; at GIP-R (EC50 GIP-R/nM, Table 3), 0.1 to 1 nM; on GIP-R (EC50 GIP-R/nM, Table 3A), 0.1 to 1 nM; at GLP-1R [2] it was over 1000 nM. For the same molecule, the Emax on GLP-1R [1] (Table 3) stood at 103%; at GLP-1R [1] (Table 3A), 103%; on GIP-R (Table 3), 83%; on GIP-R (Table 3A), 83%.

As for `CCCCCCCCCCCCCCCC(=O)N[C@@H](CCC(=O)NCCCC[C@H](NC(=O)[C@H](CO)NC(=O)[C@@H]1CCCN1C(=O)[C@@H]1CCCN1C(=O)[C@@H]1CCCN1C(=O)[C@H](C)NC(=O)CNC(=O)[C@H](CO)NC(=O)[C@H](CO)NC(=O)[C@@H]1CCCN1C(=O)CNC(=O)CNC(=O)[C@H](C)NC(=O)[C@H](CC(C)C)NC(=O)[C@H](CC(C)C)NC(=O)[C@H](Cc1c[nH]c2ccccc12)NC(=O)[C@H](CC(N)=O)NC(=O)[C@@H](NC(=O)[C@H](Cc1ccccc1)NC(=O)[C@H](CCC(=O)O)NC(=O)C(C)(C)NC(=O)[C@H](C)NC(=O)[C@H](C)NC(=O)[C@H](CCC(N)=O)NC(=O)[C@H](CCCCN)NC(=O)[C@H](CC(=O)O)NC(=O)[C@H](CC(C)C)NC(=O)[C@H](Cc1ccc(O)cc1)NC(=O)[C@@H](NC(=O)[C@H](CO)NC(=O)[C@H](Cc1ccc(O)cc1)NC(=O)[C@H](CC(=O)O)NC(=O)[C@H](CO)NC(=O)[C@@H](NC(=O)[C@H](Cc1ccccc1)NC(=O)[C@@H](NC(=O)CNC(=O)[C@H](CCC(=O)O)NC(=O)CSCC(=O)NCCN1CCSC1=O)[C@@H](C)O)[C@@H](C)O)[C@@H](C)CC)C(C)C)C(N)=O)C(=O)O` [Compound 86], the Emax on GLP-1R [1] (Table 3) is 110%; on GLP-1R [1] (Table 3A) it was 110%; on GIP-R (Table 3), 61%; on GIP-R (Table 3A) it was 61%. In addition, the EC50 was 0.1 to 1 nM at GLP-1R [1] (setting [3]); 0.1 to 1 nM on GLP-1R [1] (setting [4]); 1 to 10 nM at GIP-R (setting [5]); 1 to 10 nM at GIP-R (setting [6]); over 1000 nM at GLP-1R [2] (setting [7]).

Consider `CCCCCCCCCCCCCCCC(=O)N[C@@H](CCC(=O)NCCCC[C@H](NC(=O)[C@H](CO)NC(=O)[C@@H]1CCCN1C(=O)[C@@H]1CCCN1C(=O)[C@@H]1CCCN1C(=O)[C@H](C)NC(=O)CNC(=O)[C@H](CO)NC(=O)[C@H](CO)NC(=O)[C@@H]1CCCN1C(=O)CNC(=O)CNC(=O)[C@H](C)NC(=O)[C@H](CC(C)C)NC(=O)[C@H](CC(C)C)NC(=O)[C@H](Cc1c[nH]c2ccccc12)NC(=O)[C@H](CC(N)=O)NC(=O)[C@@H](NC(=O)[C@H](Cc1ccccc1)NC(=O)[C@H](CCC(=O)O)NC(=O)C(C)(C)NC(=O)[C@H](C)NC(=O)[C@H](C)NC(=O)[C@H](CCC(N)=O)NC(=O)[C@H](CCCCN)NC(=O)[C@H](CC(=O)O)NC(=O)[C@H](CC(C)C)NC(=O)[C@H](Cc1ccc(O)cc1)NC(=O)[C@@H](NC(=O)[C@H](CO)NC(=O)[C@H](Cc1ccc(O)cc1)NC(=O)[C@H](CC(=O)O)NC(=O)[C@H](CO)NC(=O)[C@@H](NC(=O)[C@H](Cc1ccccc1)NC(=O)[C@@H](NC(=O)CNC(=O)[C@H](CCC(=O)O)NC(=O)CSCC(=O)NCCN1C(=O)CC[C@H](C)C1=O)[C@@H](C)O)[C@@H](C)O)[C@@H](C)CC)C(C)C)C(N)=O)C(=O)O` [Compound 92], for which the EC50 on GLP-1R [1] (EC50 GLP-1R/nM, Table 3) is 1 to 10 nM; at GLP-1R [1] (EC50 GLP-1R/nM, Table 3A), 1 to 10 nM; on GIP-R (EC50 GIP-R/nM, Table 3), 0.1 to 1 nM; on GIP-R (EC50 GIP-R/nM, Table 3A) it was 0.1 to 1 nM; at GLP-1R [2] it was over 1000 nM. Besides, the Emax was in the range of 94 to 104% on GLP-1R [1] (Table 3), 94 to 104% on GLP-1R [1] (Table 3A), 85 to 88% on GIP-R (Table 3) and 85 to 88% at GIP-R (Table 3A).

In the case of `CCCCCCCCCCCCCCCC(=O)N[C@@H](CCC(=O)NCCCC[C@H](NC(=O)[C@H](CO)NC(=O)[C@@H]1CCCN1C(=O)[C@@H]1CCCN1C(=O)[C@@H]1CCCN1C(=O)[C@H](C)NC(=O)CNC(=O)[C@H](CO)NC(=O)[C@H](CO)NC(=O)[C@@H]1CCCN1C(=O)CNC(=O)CNC(=O)[C@H](C)NC(=O)[C@H](CC(C)C)NC(=O)[C@H](CC(C)C)NC(=O)[C@H](Cc1c[nH]c2ccccc12)NC(=O)[C@H](CC(N)=O)NC(=O)[C@@H](NC(=O)[C@H](Cc1ccccc1)NC(=O)[C@H](CCC(=O)O)NC(=O)C(C)(C)NC(=O)[C@H](C)NC(=O)[C@H](C)NC(=O)[C@H](CCC(N)=O)NC(=O)[C@H](CCCCN)NC(=O)[C@H](CC(=O)O)NC(=O)[C@H](CC(C)C)NC(=O)[C@H](Cc1ccc(O)cc1)NC(=O)[C@@H](NC(=O)[C@H](CO)NC(=O)[C@H](Cc1ccc(O)cc1)NC(=O)[C@H](CC(=O)O)NC(=O)[C@H](CO)NC(=O)[C@@H](NC(=O)[C@H](Cc1ccccc1)NC(=O)[C@@H](NC(=O)CNC(=O)[C@H](CCC(=O)O)NC(=O)CSCC(=O)N(C)CCN1C(=O)CSC1=O)[C@@H](C)O)[C@@H](C)O)[C@@H](C)CC)C(C)C)C(N)=O)C(=O)O` [Compound 93], the EC50 was 0.1 to 1 nM at GLP-1R [1] (EC50 GLP-1R/nM, Table 3); 0.1 to 1 nM at GLP-1R [1] (EC50 GLP-1R/nM, Table 3A); 1 to 10 nM on GIP-R (EC50 GIP-R/nM, Table 3); 1 to 10 nM at GIP-R (EC50 GIP-R/nM, Table 3A); over 1000 nM at GLP-1R [2]. Also, the Emax turned out to be 99% on GLP-1R [1] (Table 3), 99% at GLP-1R [1] (Table 3A), 73% at GIP-R (Table 3) and 73% on GIP-R (Table 3A).
